From article PMC5652740, “Inhibition of HIV-1 infection in humanized mice and metabolic stability of protein phosphatase-1-targeting small molecule 1E7-03” (Oncotarget, 2017)
“And” between values parts separate entries of the source, which are not always exact repeats. Equal values may be shown once.

Assays:
CEM T cells = assay: Cellular permeability assay by LC/FT-MS; assay type: in vitro ADME; details: 10 μM, 24 hrs; for CEM T cell permeability, % of Total, Cells: accumulation in cell lysate
Procedure: CEM T cells were seeded in 6-well plates (0.5 × 10^6 cells/ml) and treated by 10 μM of the indicated compounds. Two samples were generated for each compound (in triplicates) obtained from cellular lysate and media sample. Cell culture media samples (100 μl) were collected from each well after 24 hrs of incubation and total protein was precipitated by the addition of 400 μl cold acetone. […] To obtain cell lysates, the cells were suspended in 300 μl cold whole cell lysis buffer (50 mM Tris-HCl, pH 7.5, 0.5 M NaCl, 1% NP-40, 0.1% SDS) and sonicated. A 100 μl aliquot of the cell lysate was combined with 400 μl cold acetone to precipitate proteins. All samples were centrifuged at 13,000 × g for 5 min. Supernatants containing compounds and their metabolites were collected and evaporated to dryness on SpeedVac concentrator. The dry pellet was reconstituted in 50 μl acetonitrile for LC/FT-MS analysis.

[1] = 1E7-03 degradation in mouse plasma; assay type: in vitro ADME; details: for % of 1E7-03 degraded: mouse plasma, 10 μM
Procedure: A 10 μl aliquots from each sample were loaded to a LC-20AD nano HPLC system (Shimadzu Corporation, Columbia, MD, USA) coupled to LTQ XL Orbitrap mass spectrometer (Thermo Fisher Scientific) with the installed Xcalibur software (version 2.0.7, Thermo Fisher Scientific). Liquid chromatography was carried out on an in-house made nano-HPLC column (Polymicro Technologies Inc., Phoenix, AZ, USA) packed with reverse phase PolySulfoethyl A, 5μM, 200 Å (PolyLC Inc., Columbia, MD, USA). Mobile phase A was 0.1% formic acid in water and mobile phase B - 0.1% formic acid in acetonitrile. The elution was performed at a flow rate of 600 nl/min over 40 min using a multisegment linear gradient of mobile phase B as follows: 0–6.02 min, 1% B; 6.02–6.11 min, 1–2% B; 6.11–20 min, 2−80% B; 20–25 min, 80% B; 25–30 min, 80–85% B; 30–31 min, […]; 31–40 min, 2% B (v/v). The Orbitrap was operated under data-dependent acquisition mode. The spray voltage, capillary temperature and capillary voltage were set to 2.0 kV, 200 °C, and 39.5 V, respectively. Full-scan mass spectra were acquired in Orbitrap over 150−1500 m/z with a resolution of 30 000, followed by MS^n scans by CID activation mode. The precursor ions were fragmented with collision energy of 18 with activation Q of 0.25 and an activation time of 30 ms. Dynamic exclusion was enabled with a repeat count of 2, a repeat duration of 15 s, exclusion duration of 20 s, an exclusion list size of 50. The mass spectrometer was also operated in NL scan of m/z 18.01, 45.05, 71.03 and 72.02 and MRM mode. The MRM transitions were controlled by a segmented program in order to short the scan cycle and increase sensitivity.
1E7-03 dissolved in DMSO (10 mM stock solution) was mixed with mouse plasma (Sigma-Aldrich), guinea pig plasma (Sigma-Aldrich), ferret plasma (BioreclamationIVT), monkey plasma (courtesy of Binhua Ling, PhD, Tulane University) and human plasma (collected from heathy volunteer by the Center for Sickle Cell Disease at Howard University) to the final concentration of 10 μM and incubated at 37°C. Aliquots were collected at different time points for up to 24 hrs. The resulting sample (60 μl) was mixed with 240 μl of cold acetone, vortexed for 2 min, kept at –20°C for 30 min, and then the precipitated protein was removed by centrifugation at 13,000 × g for 5 min. The supernatant was transferred to a clean test tube and evaporated to dryness using a SpeedVac concentrator. The residue reconstituted in 60 μl of acetonitrile for LC/FT-MS analysis. All experiments were run parallel in triplicates.

[2] = Stability in mouse liver microsomes; assay type: in vitro ADME; details: 10 μM 1E7-03, 37°C, 1 hr; 1E7-03 remaining and DP1, DP3 formed
Procedure: The metabolic stability of 1E7-03 was also investigated using a pool of human and mouse liver microsomes (HMS9PL, MSS9PL, Thermo Scientific) following manufacturer's instructions. In brief, incubations were conducted at 37 ± 1°C in mixtures containing 5 μl of human or mouse liver microsomes (20 mg/ml), 183 μl of potassium phosphate buffer (pH 7.4, 100 mM) and 2 μl of 1E7-03 (10 mM sock solution of 1E7-03 in DMSO was diluted into 1 mM by PBS). The mixture was pre-incubated for 5 min, then initiated the reactions with the addition of 10 μl 20 mM NADPH (Sigma Aldrich). The reactions were terminated after 1 hr incubation by adding 800 μl cold acetone. The mixture was kept at 4°C for 30 min, and the precipitated protein was removed by centrifugation (13, 000 g for 10 min at 4°C). A 250 μl aliquot of supernatant was transferred to a clean test tube and evaporated to dryness using a SpeedVac concentrator. The residue was reconstituted in 50 μl of acetonitrile with 0.1% FA for LC/FT-MS analysis.

PP1 = target: T1, PP1 (Homo sapiens, UniProt P62136); assay: SPR competition with pRb-Tat peptide for binding to PP1; details: compounds at 1 μM; for fold reduction of the binding of pRb-Tat to PP1: pRb-Tat 10-100 nM
T1 construct: human PP1α (residues 7–300); His; made in house; host or cells: BL21 (DE3) Escherichia coli, co-expressed with GroEL/GroES chaperones
Procedure: The SPR measurements were conducted on Biacore T200 instrument (GE Healthcare, Piscataway, NJ) at 25°C. Recombinant PP1 was immobilized on a CM5 chip by amine coupling (GE Healthcare). PP1 (200 nM) was captured on flow cell 2 in 10 mM acetate buffer, pH 5.0, supplemented with 2 mM MnCl2. The average amount of PP1 immobilized on the surface was 3160 RU. Flow cell 1 was used as a reference surface to subtract background signal. Also injections of the buffer alone were used to provide double reference subtraction. To measure the direct binding of small molecules to PP1, the two flow cells of the sensor chip were primed with running buffer (0.01 M HEPES pH 7.4, 0.15 M NaCl, 0.005% v/v Surfactant P20, 1% DMSO and 2 mM MnCl2). For binding and kinetics experiments, all compounds were diluted in the running buffer, at 40 μM, 20 μM, 10 μM, 5 μM, 2.5 μM, 1.25 μM and 0 μM and then passed over the two flow cells at a flow rate of 100 μl/min for 60 sec. The number of response units was recorded after the subtraction of the reference flow cell's value (Fc2-1). Two repetitions were performed for each injection. Data were analyzed using the BiaEvaluation software of Biacore with a 1:1 binding model. […] All the small molecular weight compounds were used at 1 μM.

T1 sequence (P62136 7-300): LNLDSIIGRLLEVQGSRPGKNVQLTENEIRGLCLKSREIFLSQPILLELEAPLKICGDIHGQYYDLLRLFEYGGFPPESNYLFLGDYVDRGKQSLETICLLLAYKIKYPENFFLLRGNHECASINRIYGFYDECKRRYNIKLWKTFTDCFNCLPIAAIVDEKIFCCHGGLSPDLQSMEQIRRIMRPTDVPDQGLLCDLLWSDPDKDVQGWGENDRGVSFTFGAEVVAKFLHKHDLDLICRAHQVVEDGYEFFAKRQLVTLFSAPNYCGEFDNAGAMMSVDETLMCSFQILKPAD

Which results are given for `COc1ccc(/C=C2\CCCc3c2nc2ccccc2c3C(=O)OC(C)C(=O)OC(C)(C)C)cc1OC` (stereo not shown) [DP1-07]?
CEM T cell permeability, % of Total, Cells (CEM T cells; 37°C): 2.7% and 2.73%; CEM T cell permeability, % of Total, Media (CEM T cells; 37°C, amount in media): 97.27%

Which “level of degradation product in mouse plasma” value ([1]; 10 μM 1E7-03 in mouse plasma, 37°C, up to 24 hrs) does the source give for `COc1ccc(/C=C2\CCc3c2nc2ccccc2c3C(=O)O)cc1OC` [DP3] here?
The value was “low levels”.

What about the “% of Total (Liver microsomes, Mouse)” value [2] of the same molecule?
The value was 1.03%.

And the “fold reduction of the binding of pRb-Tat to PP1” value (“fold reduction” below) (PP1)?
The value was 2-2.5 fold.

Which “time at which DP1 levels reached their maximum” value ([1]; 10 μM 1E7-03 in mouse plasma, 37°C) does the source give for `COc1ccc(/C=C2\CCc3c2nc2ccccc2c3C(=O)OC(C)C(=O)O)cc1OC` (stereo not shown) [DP1] here?
The value was 2 h.

What about the “% of Total (Liver microsomes, Mouse)” value [2] of the same molecule?
The value was 8.36%.

And the “competition with pRb-Tat for binding to PP1” value (PP1; in words)?
The value was “best competitor”.

And the “fold reduction” value (PP1)?
Its value is 10 fold.

And the “times less efficient cellular accumulation than 1E7-03” value (CEM T cells; CEM T cells)?
Its value is “more than 10 times”.

With `CCNC(=O)NC(=O)C(C)OC(=O)c1c2c(nc3ccccc13)/C(=C/c1ccc(OC)c(OC)c1)CC2` (stereo not shown) [1E7-03] as the molecule, how does the “stability in mice and mouse plasma” value ([1]; in words) read?
The value was “not stable”.

And the “% of 1E7-03 degraded” value ([1]; 37°C, 2 hrs)?
Its value is 40%.

What about the “% of 1E7-03 degraded” value ([1]; 37°C, 4 hrs) of the same molecule?
The value was “over 85%”.

What about the “% of Total (Liver microsomes, Mouse)” value [2] of the same molecule?
The value was 91% and 90.61%.

What about the “fold reduction” value (PP1) of the same molecule?
Its value is 2-2.5 fold.

And the “CEM T cell permeability, % of Total, Cells” value (CEM T cells; 37°C)?
The value was 3%.
